Laboratory results taken from PMC9896003, “Discovery of a novel, liver-targeted thyroid hormone receptor-β agonist, CS271011, in the treatment of lipid metabolism disorders” (Frontiers in Endocrinology, 2023).
Where two headings read alike, the source gives them in different places.

Assays:
DIO mice [1] = test: RT-PCR of hepatic genes, DIO mice; assay type: in vivo, C57BL/6J mice
Method: The total RNA of fresh liver tissue was extracted using TRIzol reagent (Invitrogen, Carlsbad, CA, USA), and RNA quality was measured using a Nanodrop2000 by calculating the 260/280 ratio. Based on the manufacturer’s instructions, we reverse-transcribed 5 μg of isolated RNA with a Transcriptor First Strand cDNA Synthesis Kit (Roche Diagnostics, Mannheim, Germany). Real-time PCR (RT−PCR) was conducted to measure the relative expression of genes by using SYBR Green Master (ROX) dye (Roche Diagnostics, Mannheim, Germany) and the ABI Prism 7000 Sequence Detection System (Applied Biosystems, Foster City, CA, USA). Changes in target mRNA were standardized to β-actin mRNA levels for each sample in triplicate. The 2-^△△Ct method was used to determine the relative mRNA expression levels.

DIO mice [2] = test: DIO mouse study: liver histology (H&E, Oil Red O, NAFLD activity score); assay type: in vivo, C57BL/6J mice; conditions: 3 mg/kg, 10 weeks
Method: (§1) All animal experiments were performed at Chipscreen Biosciences (Shenzhen, China) according to the National Research Council’s Guide for the Care and Use of Laboratory Animals and the Regulations of Experimental Animal Administration issued by the State Committee of Science and Technology of China and approved by Shenzhen Peking University - The Hong Kong University of Science and Technology Medical Center’s Ethics Committee for the Welfare of Laboratory Animals (approval no. 2022-988). Forty C57BL/6J mice (4-5 weeks, male) were received and raised under a standard 12-hour light/dark cycle (lights off at 7:00 pm). Thirty-five mice were fed a fat-rich diet (SYSE Bio-tech, D12492i; 60% of kcal from fat; Changzhou, China), and the other five mice were fed a control diet (Guangdong Medical Laboratory Animal Center, Foshan, China) ad libitum for 12 weeks. […] The mice from Group 2 to Group 5 were fed a high-fat diet. Treatments started on the thirteenth week and lasted 10 weeks, in which Groups 1 and 2 received solvent (0.2% CMC-Na), and the other groups were administered corresponding compounds orally once daily (the volume of solvent was 5 ml/kg). Body weight and food intake were measured once daily during treatment. All mice were sacrificed after treatment, and blood, hearts, and livers were collected for further validation.
After the animals were sacrificed, the left hepatic lobe was collected (approximately 100–200 mg) and fixed in 4% paraformaldehyde overnight. The liver tissue was sectioned at a thickness of 5 μm after being paraffin-embedded. Liver sections were stained with haematoxylin and eosin (H&E), and the NAFLD activity scores were determined based on the steatosis, lobular inflammation, and hepatocyte ballooning degeneration in accordance with the standard proposed by Kleiner ([17]).
To analyse the content of lipids in the liver, Oil Red O (ORO) staining of isobutyl alcohol-frozen liver sections was conducted by Wuhan Servicebio Technology Co., Ltd. (Wuhan, China). Each positive region of ORO staining was quantified for each sample using Imangepro plus 6.0 software ([…]).

[3] = Serum pharmacokinetic study, single oral gavage; assay type: in vivo, C57BL/6J mice; conditions: for AUC(0-inf) / AUC(0-t) / Cmax / Tmax / half-life / MRT last: male, mouse, serum, po, orally once, normal C57BL/6J mice; for MRT last: read-out: MRT(0-t)
Method: Then, each group was subdivided into three groups for blood extraction: Group 1, sample collection after 0.5 hours and 2 hours of treatment (n=3); Group 2, sample collection after 1 hour and 4 hours of treatment (n=3); and Group 3, sample collection after 8 hours and 24 hours of treatment (n=3). Approximately 100 μl of blood was collected from the orbit and centrifuged (3500 g, 15 min, 4°C) to extract serum and placed on ice (0°C), and 20 μl of serum was added to 200 μl of extractant (containing 200 ng/ml methanol), which was assessed by liquid chromatography-tandem mass spectrometry (LC−MS/MS) procedures. […]

DIO mice [4] = test: RT-PCR of myocardial energy metabolism gene mGPDH, DIO mice; assay type: in vivo, C57BL/6J mice
[5] = Tissue distribution study (heart, liver, kidney, blood) by LC-MS/MS; assay type: in vivo, C57BL/6J mice; conditions: for Concentration, Blood / Concentration, Heart / Kp at 24 h: 24h; for Concentration, Blood / Concentration, Heart: mean; for Kp at 2 h / Kp at 4 h / Kp at 24 h: C57BL/6J, mouse
Method: To detect the tissue distribution of drugs, the heart, liver, and kidney of mice in Group 1, Group 2, and Group 3 were collected at 2 hours, 4 hours, and 24 hours, respectively. Then, 1 ml of 1X PBS was added for tissue homogenization. 50 μl tissue homogenate was added to 500 μl of extractant (containing 200 ng/ml methanol). The protein of tissue samples was precipitated by vortex oscillation for 5 min and centrifuged at 13,000 rpm for 10 min, and 150 μL of supernatant was collected and determined by LC−MS/MS procedures.

DIO mice [6] = test: DIO mouse study: serum biochemical indices; assay type: in vivo
Method: as §1, with “Treatments started on the thirteenth week and lasted 10 weeks, in which Groups 1 and 2 received solvent (0.2% CMC-Na), and the other groups were administered corresponding compounds orally once daily (the volume of solvent was 5 ml/kg).” left out
Blood samples were collected from the orbit and placed for 30 min at room temperature and then centrifuged (3500 g, 15 min, 4°C), and the serum was collected for TG, TC, AST, and ALT tests. For the liver TG and TC tests, the right lobe of the liver was collected and weighed accurately, and then isopropanol and absolute ethanol were added at a ratio of 1:9 (weight/volume) for tissue homogenization on ice. Next, the liver sample was centrifuged (10,000 g and 2500 g, 10 min, at 4°C for liver TG and TC extraction, respectively), and the supernatant was collected for liver TG and TC assays. Tests for TC, ALT and AST were performed following the manufacturer’s instructions.

NRK49F = test: Cell viability in kidney cell line NRK49F; assay type: cell-based
DIO mice [7] = test: DIO mouse study: liver TG and TC; assay type: in vivo, C57BL/6J mice; conditions: 3 mg/kg, 10 weeks
Method: as §1, with “Treatments started on the thirteenth week and lasted 10 weeks, in which Groups 1 and 2 received solvent (0.2% CMC-Na), and the other groups were administered corresponding compounds orally once daily (the volume of solvent was 5 ml/kg).” left out
Blood samples were collected from the orbit and placed for 30 min at room temperature and then centrifuged (3500 g, 15 min, 4°C), and the serum was collected for TG, TC, AST, and ALT tests. […]

HMC = test: Cell viability in kidney cell line HMC; assay type: cell-based
[8] = DIO mouse study: body weight, food intake, liver and heart weight; assay type: in vivo; conditions: DIO mice
Method: as §1, with “Treatments started on the thirteenth week and lasted 10 weeks, in which Groups 1 and 2 received solvent (0.2% CMC-Na), and the other groups were administered corresponding compounds orally once daily (the volume of solvent was 5 ml/kg).” left out

[9] = heart/blood, 10 mg/kg oral, read-out: Ratio (tissue/blood), Heart
[10] = kidney/blood, 10 mg/kg oral, read-out: Ratio (tissue/blood), Kidney
[11] = liver/blood, 10 mg/kg oral, read-out: Ratio (tissue/blood), Liver
[12] = male, heart / blood, 3 mg/kg oral, read-out: Ratio (tissue/blood), Heart
[13] = male, kidney / blood, 3 mg/kg oral, read-out: Ratio (tissue/blood), Kidney
[14] = male, liver / blood, 3 mg/kg oral, read-out: Ratio (tissue/blood), Liver
[15] = 10 weeks of treatment, CS271011 1 and 3 mg/kg, MGL-3196 3 mg/kg
[16] = 10 weeks oral once daily, CS271011 1 and 3 mg/kg, MGL-3196 3 mg/kg

## CC(C)c1cc(Oc2c(Cl)cc(-n3nc(C#N)c(=O)[nH]c3=O)cc2Cl)n[nH]c1=O [MGL-3196, 2-[3,5-dichloro-4-(5-isopropyl-6-oxo-1,6-dihydropyridazin-3-yloxy)phenyl]-3,5-dio xo-2,3,4,5-tetrahydro[1,2,4]triazine-6-carbonitrile]
DIO mice [1]
  hepatic expression of Abcc3: negatively regulated
  hepatic expression of Csad, Slc25a30 and Tff3 (downregulated in DIO mice): rescued
  hepatic expression of Cyp4a10: obviously downregulated
  hepatic expression of Cyp39a1: upregulated
  hepatic expression of Hsd17b6: diminished
  hepatic expression of LDLR, Cyp7a1, Cyp17a1, Srebp2 and Sqle: positively regulated
  hepatic expression of Srebf1: strongly downregulated
DIO mice [2]
  NAS score: equivalent efficacy
  ORO staining area: decreased
  hepatic ballooning: mitigated hepatic ballooning with a considerable effect
  steatosis score: decreased
[3]; 3 mg/kg and 10 mg/kg oral
  bioavailability in vivo, comparison at the same dosage: higher bioavailability in vivo than CS271011
[3]; 3mg/kg
  AUC(0-inf): 9470 ng·h/mL
  AUC(0-t): 9330 ng·h/mL
  Cmax: 1140 ng/mL
  Tmax: 2 h
  half-life: 3.8 h
  MRT last: 6.3 h
[3]; 10mg/kg
  AUC(0-inf): 35800 ng·h/mL
  AUC(0-t): 35600 ng·h/mL
  Cmax: 4870 ng/mL
  Tmax: 2 h
  half-life: 3 h
  MRT last: 5.8 h
DIO mice [4]
  mGPDH expression in the hearts of DIO mice: barely affects
[5]; 3 mg/kg and 10 mg/kg oral, especially 2 and 4 hours after administration
  tissue distribution (liver targeting): liver-targeted
[5]; 3 mg/kg oral
  Concentration, Blood: 25.40 ng/g
  Concentration, Heart: 78.08 ng/g
[5]; 10 mg/kg oral
  Concentration, Blood: 42.40 ng/g
  Concentration, Heart: 147.91 ng/g
[5]; [9]
  Kp at 2 h: 0.113
  Kp at 4 h: 0.112
  Kp at 24 h: 3.49
[5]; [10]
  Kp at 2 h: 0.572
  Kp at 4 h: 0.607
  Kp at 24 h: 0.734
[5]; [11]
  Kp at 2 h: 4.59
  Kp at 4 h: 4.63
  Kp at 24 h: 4.8
[5]; [12]
  Kp at 2 h: 0.213
  Kp at 4 h: 0.146
  Kp at 24 h: 3.07
[5]; [13]
  Kp at 2 h: 0.64
  Kp at 4 h: 0.617
  Kp at 24 h: 1.25
[5]; [14]
  Kp at 2 h: 6.59
  Kp at 4 h: 6.17
  Kp at 24 h: 3.17
DIO mice [6]; 3 mg/kg, 10 weeks, mean ± SD (DIO control 1.25±0.38)
  Serum TG: 0.59 ± 0.11 mmol/L
DIO mice [6]; 3 mg/kg, 10 weeks, mean ± SD (DIO control 7.79±1.67)
  Serum TC: 3.46 ± 1.61 mmol/L
DIO mice [6]; 10 weeks of treatment
  serum ALT and AST levels: no influence
DIO mice [6]; [15]
  serum TC vs. DIO control: significant reduction
  serum TG vs. DIO control: significant reduction
NRK49F
  cell viability: no effect on cell viability
DIO mice [7]
  hepatic TC concentration: markedly reduced
  hepatic TG concentration: markedly reduced
HMC
  cell viability: no effect on cell viability
[8]; 10-week drug intervention
  liver weight and LW/BW: dramatically reduced
[8]; [16]
  body weight: dramatic reduction in body weight
  food intake: neither CS271011 nor MGL-3196 impeded food intake
